Experimental data as given in US12540197B2, “Anti-tissue factor antibodies and antibody conjugates, compositions comprising anti-tissue factor antibodies or antibody conjugates, and methods of making and using anti-tissue factor antibodies and antibody conjugates” (SUTRO BIOPHARMA, INC., priority 2023, dated 2026).

System: BxPC3 cells
Assay: Secondary ADC cell killing assay (antibody + anti-human Fc nanobody conjugated to SC236) on BxPC3
Assay type: cell-based
Settings: Table 15, scFv-Fc from SRP2842; nanobody-SC236 20 nM, 120 hrs
Procedure: The internalization ability of the lead antibodies was evaluated by an ADC cell killing assay on Tissue Factor positive BxPC3 cells. A total of 625 cells in a volume of 25 μL were seeded in each well of a 384-well flat bottom white polystyrene plate. Lead antibodies were formulated at 4-fold starting concentration in the cell culture medium and filtered through MultiScreenHTS 96-Well Filter Plates (Millipore; Billerica, Massachusetts). 12.5 μL of antibody was added into each treatment well, and 12.5 μL of anti-human Fc nanobody conjugated to SC236 was then added into each well at a fixed final concentration of 20 nM. Assay plates were cultured at 37° C. in a CO2 incubator for 120 hrs before assay. For cell viability measurement, 30 μL of Cell Titer-Glo® reagent (Promega Corp. Madison, WI) was added into each well, and plates were processed as per product instructions. Relative luminescence was measured on an ENVISION® plate reader (Perkin-Elmer; Waltham, MA). Relative luminescence readings were converted to percent viability using untreated cells as controls. Data was fitted with non-linear regression analysis, using a log (inhibitor) vs. response-variable slope, 4 parameter fit with GraphPad Prism (GraphPad v 5.0, Software; San Diego, California).

Substance: Tisotumab
- BxPC3 Cell Killing Span (%): 94.7%
- EC50: 0.023 nM
